In US20250353873A1, “COMPOUNDS AND METHODS FOR MODULATING APOE EXPRESSION” (Ionis Pharmaceuticals, Inc., priority 2024, published 2025):
Strand notation (5' to 3'): a small letter for the sugar, then the base; units joined by * are phosphorothioate-linked, units joined directly phosphodiester-linked; [ ] holds rarer units or linkages, { } end groups; capitals alone tell only the bases. [ms] = mesyl phosphoramidate linkage; e = 2'-O-(2-methoxyethyl) (MOE); [5mC] = 5-methylcytosine; d = 2'-deoxy (DNA)

Key:
[1] = tested on: human APOE RNA; assay: Dose-dependent inhibition of human APOE RNA in HepG2 cells, electroporation, 24 hours (Example 6); assay type: cell-based
Method in brief: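 HepG2 cells, 50,000 per well, electroporated with various oligonucleotide concentrations. APOE RNA measured with primer probe set RTS3073, normalized to GAPDH (RTS104), expressed as % of untreated control; IC50 then calculated.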

[2] = tested on: human APOE RNA; assay: Activity in APOE 1549 knock-in mice, single ICV bolus, 4 weeks (Example 8); assay type: in vivo; settings: n = 2, single ICV bolus of 300 μg, four weeks post treatment, Table 18
Protocol: Modified oligonucleotides described above were tested in the 1549 APOE knock-in mouse model described above.
APOE knock-in mice were divided into groups of either 2 or 6 mice each as described in the tables below. Each mouse received a single intracerebroventricular (ICV) bolus of 300 μg of modified oligonucleotide. A group of either 3 or 6 mice received a single ICV bolus with PBS as a negative control.
Four weeks post treatment, mice were sacrificed and RNA was extracted from cortical brain tissue and spinal cord for quantitative real-time RT-PCR analysis of RNA expression of APOE using primer probe set RTS3073 (described herein above). APOE RNA levels were normalized to mouse Ppia. Mouse Ppia was amplified using primer probe set m_cyclo24 (described herein above). Results are presented as percent human APOE RNA relative to the amount of human APOE RNA in PBS treated animals, (% control). Each experiment is identified in separate tables below.

[3] = tested on: human APOE RNA; assay: Activity in APOE C57BL/6NTac-Apoeem7250 knock-in mice, single ICV bolus, 20 weeks (Example 13); assay type: in vivo; settings: single ICV bolus 300 μg, 20 weeks post treatment, normalized to mouse Ppia
Method in brief: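 Knock-in mice (n=4) given a single ICV bolus of 300 μg oligonucleotide, PBS as control. After 20 weeks, human APOE RNA in cortex and spinal cord measured by RT-qPCR, normalized to mouse Ppia, expressed as % of PBS-treated animals.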

Row | Substance | IC50 [1] | APOE RNA (% UTC) ([1]; 5 nM) | APOE RNA (% UTC) ([1]; 13 nM) | APOE RNA (% UTC) ([1]; 33 nM) | APOE RNA (% UTC) ([1]; 82 nM) | APOE RNA (% UTC) ([1]; 205 nM) | APOE RNA (% UTC) ([1]; 512 nM) | APOE RNA (% UTC) ([1]; 1,280 nM) | APOE RNA (% UTC) ([1]; 3,200 nM) | APOE RNA (% UTC) ([1]; 8,000 nM) | APOE RNA (% UTC) ([1]; 20,000 nM) | APOE RNA (% control) Cortex [2] | APOE RNA (% control) Spinal Cord [2] | APOE RNA (% control) Cortex [3] | APOE RNA (% control) Spinal Cord [3]
1 | 1736527: 6-10-4 MOE gapmer CTTGGTGAATCTTTATTAAA, linkages sssooozzsssssssssss (e[5mC]*eT*eT*eGeGeTdG[ms]dA[ms]dA*dT*d[5mC]*dT*dT*dT*dA*dT*eT*eA*eA*eA) [compound 1736527] | 1580 nM | 104 % UTC | 108 % UTC | 96 % UTC | 97 % UTC | 92 % UTC | 63 % UTC | 37 % UTC | 37 % UTC | 34 % UTC | 23 % UTC | 37 % control | 54 % control | 64 % control | 58 % control
2 | 1736525: 6-10-4 MOE gapmer CTTGGTGAATCTTTATTAAA, linkages sooosszzsssssssssss (e[5mC]*eTeTeGeG*eT*dG[ms]dA[ms]dA*dT*d[5mC]*dT*dT*dT*dA*dT*eT*eA*eA*eA) [compound 1736525] | 1280 nM | 101 % UTC | 100 % UTC | 106 % UTC | 113 % UTC | 70 % UTC | 69 % UTC | 37 % UTC | 42 % UTC | 22 % UTC | 7 % UTC | 35 % control | 41 % control | 71 % control | 118 % control
3 | 1736520: 6-10-4 MOE gapmer CTTGGTGAATCTTTATTAAA, linkages sossoszzzssssssssss (e[5mC]*eTeT*eG*eGeT*dG[ms]dA[ms]dA[ms]dT*d[5mC]*dT*dT*dT*dA*dT*eT*eA*eA*eA) [compound 1736520] | 570 nM | 109 % UTC | 87 % UTC | 92 % UTC | 72 % UTC | 62 % UTC | 34 % UTC | 28 % UTC | 11 % UTC | 11 % UTC | 83 % UTC | 41 % control | 32 % control | 65 % control | 62 % control
4 | 1736526: 6-10-4 MOE gapmer CTTGGTGAATCTTTATTAAA, linkages ssoooszzsssssssssss (e[5mC]*eT*eTeGeGeT*dG[ms]dA[ms]dA*dT*d[5mC]*dT*dT*dT*dA*dT*eT*eA*eA*eA) [compound 1736526] | 1150 nM | 89 % UTC | 114 % UTC | 100 % UTC | 85 % UTC | 71 % UTC | 51 % UTC | 58 % UTC | 28 % UTC | 25 % UTC | 18 % UTC | 35 % control | 42 % control | 67 % control | 68 % control
5 | 1736522: 6-10-4 MOE gapmer CTTGGTGAATCTTTATTAAA, linkages sooosszzssssssssoss (e[5mC]*eTeTeGeG*eT*dG[ms]dA[ms]dA*dT*d[5mC]*dT*dT*dT*dA*dT*eTeA*eA*eA) [compound 1736522] | 1380 nM | 110 % UTC | 88 % UTC | 90 % UTC | 82 % UTC | 67 % UTC | 59 % UTC | 45 % UTC | 41 % UTC | 18 % UTC | 43 % UTC | 41 % control | 39 % control | 64 % control | 56 % control
6 | 1736523: 6-10-4 MOE gapmer CTTGGTGAATCTTTATTAAA, linkages ssoooszzssssssssoss (e[5mC]*eT*eTeGeGeT*dG[ms]dA[ms]dA*dT*d[5mC]*dT*dT*dT*dA*dT*eTeA*eA*eA) [compound 1736523] | 670 nM | 97 % UTC | 114 % UTC | 108 % UTC | 79 % UTC | 78 % UTC | 47 % UTC | 29 % UTC | 39 % UTC | 5 % UTC | 4 % UTC | 42 % control | 34 % control | 73 % control | 44 % control
7 | 1736524: 6-10-4 MOE gapmer CTTGGTGAATCTTTATTAAA, linkages sssooozzssssssssoss (e[5mC]*eT*eT*eGeGeTdG[ms]dA[ms]dA*dT*d[5mC]*dT*dT*dT*dA*dT*eTeA*eA*eA) [compound 1736524] | 1090 nM | 97 % UTC | 101 % UTC | 89 % UTC | 91 % UTC | 66 % UTC | 66 % UTC | 39 % UTC | 34 % UTC | 28 % UTC | 17 % UTC | 36 % control | 31 % control | 67 % control | 62 % control
